“Also recorded” adds a separate entry of the source.
Key:
[1] = Biodistribution study in rats 4 h after single oral administration of POH and TMZ; format: in vivo, Male Wistar rats; details: n = 4; for tissue concentrations (brain, liver, spleen, kidney, lung), in words: rats
Experimental: Following blood collection, animals were anesthetized and euthanized, and their organs (kidneys, liver, spleen, brain, and lungs) were promptly excised and stored at −20°C. Tissue samples were homogenized in PBS (pH 7.4) at a ratio of 1 part tissue to 5 parts buffer (w/v), using a mechanical homogenizer equipped with a 5 mm probe.
For chromatographic analysis, 200 μL of each tissue homogenate was mixed with 50 μL of IS solution (final IS concentration: 100 ng/mL) and 750 μL of ACN to reach a final volume of 1 mL. The mixture was centrifuged at 3500 rpm for 10 min at 20°C. The supernatant was collected, filtered through a 0.22 μm membrane, and transferred to injection vials for UPLC‐MS/MS analysis. When necessary, samples were diluted appropriately to ensure analyte concentrations fell within the validated linear range.
The pharmacokinetic and biodistribution study was conducted in accordance with ethical guidelines and approved by the Animal Ethics Committee of the Universidade Estadual do Centro‐Oeste, Brazil (Protocol No. 026/2023). Male Wistar rats (n = 6 for pharmacokinetics; n = 4 for biodistribution), weighing approximately 200 g, were housed under controlled environmental conditions (12 h light/dark cycle, 35% relative humidity, and temperature of 23°C ± 2°C). Animals had free access to food and water, which were withheld 10 h prior to drug administration and resumed 2 h afterward.
Each animal received a single oral dose of POH (47 mg/kg) and TMZ (2 mg/kg). For pharmacokinetic profiling, blood samples were collected via the tail vein into heparinized tubes at predefined time points: 0.5, 1, 2, 4, 8, 12, and 24 h post‐administration. For biodistribution analysis, a separate cohort of rats (n = 4) was sacrificed 4 h after dosing. Organs, including the brain, liver, lungs, kidneys, and spleen, were collected, homogenized, and stored at −20°C for subsequent quantification, as detailed in Section 3.2.

[2] = parameters: method as in Ostermann et al. [2004]; details: ref Ostermann et al. [2004]; cited from earlier work
[3] = rat brain, 4 h after single oral dose POH 47 mg/kg and TMZ 2 mg/kg
[4] = 4 h after single oral dose POH 47 mg/kg and TMZ 2 mg/kg

| brain concentration / CNS penetration, in words [1, 3] | tissue concentrations (brain, liver, spleen, kidney, lung), in words [1, 4] | hepatic accumulation, in words ([1]; rat liver, 4 h after single oral dose POH 47 mg/kg and TMZ 2 mg/kg) | concentration at 4 h ([1]; male, Wistar, rat brain, 4 h after single oral dose TMZ 2 mg/kg and POH 47 mg/kg) [ng/mL] | SMILES | share of the plasma concentration reaching brain tissues [2] |
| --- | --- | --- | --- | --- | --- |
| lower brain concentrations | lowest tissue concentrations | – | – | NC(=O)c1[nH]cnc1N [AIC, 5‐aminoimidazole‐4‐carboxamide] | – |

| SMILES | brain concentration / CNS penetration, in words [1, 3] | tissue concentrations (brain, liver, spleen, kidney, lung), in words [1, 4] | hepatic accumulation, in words ([1]; rat liver, 4 h after single oral dose POH 47 mg/kg and TMZ 2 mg/kg) | concentration at 4 h ([1]; male, Wistar, rat brain, 4 h after single oral dose TMZ 2 mg/kg and POH 47 mg/kg) [ng/mL] | share of the plasma concentration reaching brain tissues [2] |
| --- | --- | --- | --- | --- | --- |
| C=C(C)[C@@H]1CC=C(C(=O)O)CC1 [PA, perillic acid] | limited brain penetration; also recorded: lower brain concentrations | mainly distributed to liver and kidneys | marked hepatic accumulation | – | – |
| Cn1nnc2c(C(N)=O)ncn2c1=O [TMZ, Temozolomide] | highest concentration in the brain | highest tissue concentrations in all organs | – | ~1000 | ~ 20% |

Source: publication PMC12628652, “A Validated UPLC‐MS/MS Method for Monitoring Temozolomide and Perillyl Alcohol Metabolites in Biological Matrices: Insights From a Preclinical Pharmacokinetic Study” (Biomedical Chromatography, 2025)
